Entries after “also recorded” stand apart in the source; their conditions may differ. Square brackets hold non-standard residues; d marks the D form. Peptide text beside a SMILES is read from it. Dmt = Cc1cc(O)cc(C)c1C[C@H](N)C(=O)O
How the values were obtained:
cells in culture = conditions: similar studies, cell line not stated
Huh7 cells [1] = assay: GFP uptake into cells on co-incubation with peptide or peptide-SMCC conjugate; type: cell-based; conditions: 3 μg GFP + 40 μl peptide, 60 min at 37° C., then 24 hours; versus GFP alone
Experimental: Carrier complex formation by physical mixing of protein and [Dmt1]DALDA-SMCC conjugate. The [Dmt^1]DALDA-SMCC conjugate was prepared as described above. The protein molecules (i.e. green fluorescent protein, GFP) were mixed with the [Dmt^1]DALDA-SMCC conjugate for 15 min at room temperature before use in cellular uptake studies.
Assay for protein uptake into cells when co-incubated with [Dmt1]DALDA-SMCC conjugate. […] 2 ml of cell medium was then added to cells which were incubated for an additional 24 hours in the cell culture incubator. After incubation, cells were washed four times in cell medium and GFP retained in living cells was visualized, by confocal laser scanning microscopy. Excitation was performed at 340 nm and emission was measured at 520 nm.
2 ml of cell medium was then added to cells and incubated for an additional 24 hours in cell culture incubator. After incubation, cells were washed four times in cell medium and GFP retained in living cells was visualized by confocal laser scanning microscopy. Excitation was performed at […] and emission was measured at […].

Caco-2 monolayer = assay: Peptide translocation across Caco-2 monolayers (Transwell, apical-to-basolateral); type: in vitro ADME; conditions: 60 min
Experimental: (§1) Assay for Peptide Translocation across Caco-2 Monolayers. Monolayers of Caco-2 cells were prepared as described previously (Irie et al., J. Pharmacol. Exp. Ther. 2001, 298: 711-717), Caco-2 cells (2×10^5) were seeded on microporous membrane filters (24 mm, […]) inside Transwell cell culture chambers (Corning Glassworks, Corning, N.Y.). Each Transwell chamber was filled with 1.5 ml of medium in the apical compartment and 2.5 ml in the basolateral compartment. The cell monolayers were given fresh medium every 1 to 2 days and were used on day 28 for transport experiments.
(§2) The apparent permeability coefficient was calculated according to the following equation: Papp=X/(t·A·Co), where X/t is the rate of uptake in the receiver compartment, A is the diffusion area (4.72 cm^2), and Co is the initial concentration in the donor compartment.

[2] = as above; type: in vitro ADME; conditions: human, Caco-2; apical-to-basolateral; read-out: apparent permeability coefficient
Experimental: as §1, §2

Caco-2 cells [3] = assay: Assay for peptide efflux from Caco-2 cells; type: cell-based
Experimental: Assay for Peptide Efflux from CaCo-2 Cells. […] Cells were then washed four times with 1 ml of ice-cold incubation solution to terminate uptake and then incubated with 0.5 ml of MEM for 1 h at either 37 or 4° C. to measure the efflux of peptide from cells to the incubation medium. The amount of radioactivity was determined in cell lysates and in the incubation medium.

peptidase = conditions: Szeto et al., J. Pharmacol. Exp. Ther., 2001; cited from earlier work
Caco-2 cells [4] = assay: Assay for peptide uptake in Caco-2 cells; type: cell-based
Source text: Assay for Peptide Uptake.

SH-SY5Y cells = assay: Cell viability, MTT assay, SH-SY5Y cells; type: cell-based; conditions: 1 nM to 10 μM, 24 h
N2A cells = assay: Cell viability, MTT assay, N2A cells; type: cell-based; conditions: 1 nM to 10 μM, 24 h
[5] = test system: Caco-2, SH-SY5Y, HEK293, and CRFK cells; conditions: 250 nM, 1 h at 37° C., acid-wash
Experimental: Assay for Peptide Uptake. […] Monolayers of cells were grown on 12-well plates (5×10^5 cells/well) coated with collagen for 3 days. […] At the end of the incubation period, cells were washed four times with HBSS, and 0.2 ml of 0.1 N NaOH with 1% SDS was added to each well. The cell contents were then transferred to scintillation vials and radioactivity was counted. […] Before cell lysis, cells were incubated. with 0.2 ml of 0.2 M acetic acid/0.05 M NaCl for 5 min on ice.
An acid-wash step was included to distinguish internalized radioactivity (acid-resistant) from surface-bound radioactivity (acid-sensitive).

Caco-2 cells [6] = assay: Cell viability, MTT assay, Caco-2 cells; type: cell-based; conditions: 1 nM to 10 μM, 24 h
[7] = test system: cell surface receptors, membranes prepared from Caco-2 cells; assay: Radioligand binding assay using Caco-2 cell membranes; conditions: 15-960 pM radioligand, 60 min at 25° C.; listed as [^3H][Dmt^1]DALDA
Experimental: Radioligand Binding Assay Using Cell Membranes. […] After 4 days of culture, cells were washed two times with PBS buffer and then scraped off. Cells were centrifuged at 500 g for 5 min and the pellet stored at −80° C. Cells were homogenized in ice-cold 50 mM Tris-HCl buffer (5 μg/ml leupeptin, 2 μg/ml chymostatin, 10 μg/ml bestatin, and 1 mM EGTA, pH 7.4). The homogenate was centrifuged at 36,000 g for 20 min. The pellets were resuspended with 50 mM Tris-HCl buffer. […] Free radioligand was separated from bound radioligand by rapid filtration through GF/B filters (Whatman, Maidstone, UK) with a cell harvester (Brandel Inc., Gaithersburg, Md.). Filters were washed three times with 10 ml of Tris buffer, and radioactivity was determined by liquid scintillation counting. Binding affinities (Kd) and receptor number (Bmax) were determined using nonlinear regression (GraphPad Software, San Diego, Calif.).

Huh7 cells [8] = assay: Cell viability by trypan blue uptake; type: cell-based; conditions: 50 μl of 1 mM conjugate in 1 ml medium, 24 hours at 37° C.
Experimental: Trypan blue is only taken by cells with increased membrane permeability. Huh7 cells (1×10^6) were washed three times in DMEM, and 1 ml of fresh medium, or media containing 50 μl of 1 mM [Dmt^1]DALDA-SMCC conjugate, [D-Arg-Dmt-Lys-Phe-NH2]-SMCC conjugate, or [Phe^1]DALDA-SMCC conjugate, and incubated at 37° C. for 24 hours at 5% CO2. Cells were then washed three times with DMEM, and 1 ml of 0.4% trypan blue was added to the cells for 2 minutes. Excessive dye was removed by washing cells in cell medium and the cells were examined by light microscopy.

Huh7 cells [9] = assay: RNA uptake into cells when mixed with peptide-SMCC conjugate; type: cell-based; conditions: for increase of uptake of RNA oligo on co-incubation: 11-base RNA oligo
Experimental: Carrier complex formation by physical mixing of RNA and [Dmt^1]DALDA-SMCC conjugate. The [Dmt^1]DALDA-SMCC conjugate was prepared as described above. The RNA molecules were mixed with the [Dmt^1]DALDA-SMCC conjugate in PBS for 15 min at room temperature before use in cellular uptake studies.
Assay for uptake of RNA uptake into cells when mixed with [Dmt1]DALDA-cross-linker conjugate. Huh7 cells (1×10^6 cells/well) were washed with DMEM and then incubated with 1.0 ml DMEM containing [^32P]RNA oligo alone or with 40 μl [Dmt^1]DALDA-SMCC conjugate, for 60 min at 37° C. or 4° C. Cells were then washed four times in DMEM and one time in sodium acetate solution to reduce nonspecific binding before incubated in lysis buffer for 30 min and radioactivity determined in the cell lysate.
The carrier complex was formed by physical mixing of RNA and [Dmt^1]DALDA-SMCC conjugate. […] A single strand 11-mer [^32P]RNA oligo was mixed with the [Dmt^1]DALDA-SMCC conjugate for 15 min at room temperature before use in cellular uptake studies.
Huh7 cells (1×10^6 cells/well) were washed with DMEM and then incubated with 1.0 ml DMEM containing the [^32P]RNA oligo (100,000 cpm) alone or with […] [Dmt^1]DALDA-SMCC conjugate at 37° C. or 4° C. Cells were then washed four times in DMEM and one time in sodium acetate solution to remove nonspecific binding before incubated in lysis buffer for 30 min and retained radioactivity determined.

Huh7 cells [10] = assay: Assay of apoptosis (Hoechst dye); type: cell-based; conditions: 50 μl of 1 mM conjugate, 24 hours at 37° C., versus PBS control
Experimental: Assay of apoptosis. Apoptosis was determined with the use of Hoechst dye (Molecular Probes, Eugene, Oreg.) for staining apoptotic nuclei. The Hoechst dye was loaded to cell cultures and incubated for 15 min. Excessive Hoechst dye was removed by washing cells with cell medium. (free of pH indicator) the cells examined using fluorescent microscopy (excitation at 350 nm and emission at 461 nm).
After the incubation, 1 ml of Hoechst dye (Molecular Probes, Eugene, Oreg.) for staining apoptotic nuclei were added to cells and incubated for additional 15 min. Excessive Hoechst dye was removed by washing cells with cell medium (free of pH indicator) and cells treated with [Dmt^1]DALDA-SMCC conjugate were compared with control cells using fluorescent microscopy (excitation at 350 nm and emission at […]). Apoptosis is indicated by concentration of fluorescence in the nuclei.

SMILES: Cc1cc(O)cc(C)c1C[C@H](NC(=O)[C@H](N)CCCNC(=N)N)C(=O)N[C@@H](CCCCN)C(=O)N[C@@H](Cc1ccccc1)C(N)=O [[D-Arg-Dmt-Lys-Phe-NH2], D-Arg-2′6′Dmt-Lys-Phe-NH2] (H-[dR][Dmt]KF-NH2)
- toxicity to cells / cell viability (cells in culture): no effect on cell viability

SMILES: Cc1cc(O)cc(C)c1C[C@H](N)C(=O)N[C@H](CCCNC(=N)N)C(=O)N[C@@H](Cc1ccccc1)C(=O)N[C@@H](CCCCN)C(N)=O [[Dmt^1]DALDA, 2′,6-Dmt-D-Arg-Phe-Lys-NH2]
- uptake of GFP into cells (green fluorescence) (Huh7 cells [1]): moderately increased green fluorescence within the cell cytoplasm
- percentage translocated from the apical to the basolateral side (Caco-2 monolayer): 10.4%
- Papp A→B at 0.2 μM [2]: 12.4 ×10⁻⁶ cm/s
- effect of verapamil (P-glycoprotein inhibitor) on efflux (Caco-2 cells [3]; 100 μM verapamil): not affected
- effect of DEPC on efflux (Caco-2 cells [3]; 0.2 mM DEPC, 10 min at 25° C. before loading): decreased
- effect of temperature (4° C.) on efflux (Caco-2 cells [3]; 4° C. versus 37° C.): temperature had a significant effect
- peptide effluxed into medium (Caco-2 cells [3]; preloaded 1 h, 1 h efflux at 37° C.): 80%
- resistance against peptidase degradation (peptidase): resistant against peptidase degradation
- concentration dependence of uptake (Caco-2 cells [4]; 1 μM-3 mM, 1 h at 37° C.): concentration-dependent over a wide range of concentrations
- effect of verapamil (P-glycoprotein inhibitor) on cellular uptake (Caco-2 cells [4]; 100 μM verapamil): no effect
- increase of uptake by DEPC (Caco-2 cells [4]; 0.2 mM DEPC): 34 fold
- effect of 4° C. on uptake (Caco-2 cells [4]; 4° C. versus 37° C.): slower compared with 37 °C
- uptake at 4° C. by 45 min (Caco-2 cells [4]; 4° C., 45 min, compared with 37° C.): 76.5%
- uptake at 4° C. by 1 h (Caco-2 cells [4]; 4° C., 1 h, compared with 37° C.): 86,3%
- time at which peptide was first observed in cell lysate (Caco-2 cells [4]; 37° C., 250 nM): 5 min
- fraction resistant to acid-wash (presumed inside the cell) (Caco-2 cells [4]; 1 h at 37° C., acid-wash before lysis): 80.8%
- total amount recovered in cell lysate, of the total drug (Caco-2 cells [4]; after 1-h incubation, 37° C.): about 1%
- effect of pH on uptake (Caco-2 cells [4]; pH varied from 4.0 to 7.4, 1 h at 37° C.): unchanged
- cell viability (MTT assay) (SH-SY5Y cells): no effect on cell viability
- cell viability (MTT assay) (N2A cells): no effect on cell viability; also recorded: not toxic to cells in culture
- internalization (acid-resistant radioactivity) in different cell lines [5]: taken up extensively in all cell types
- cell viability (MTT assay) (Caco-2 cells [6]): no effect on cell viability
- specific binding to Caco-2 membranes [7]: No high-affinity specific binding was observed

SMILES: Cc1cc(O)cc(C)c1C[C@H](N)C(=O)N[C@H](CCCNC(=N)N)C(=O)N[C@@H](Cc1ccccc1)C(=O)N[C@@H](CCCCNC(=O)C1CCC(CN2C(=O)C=CC2=O)CC1)C(N)=O (stereo partly drawn) [[Dmt^1]DALDA-SMCC conjugate]
- uptake of GFP into cells (green fluorescence) (Huh7 cells [1]): even greater uptake of GFP; also recorded: enhances uptake of green fluorescent protein
- trypan blue uptake (cell viability) (Huh7 cells [8]): No increase in trypan blue uptake
- increase of uptake of RNA oligo on co-incubation (Huh7 cells [9]; 15 min at 37° C.): 10 fold
- increase of uptake of RNA oligo on co-incubation (Huh7 cells [9]; 60 min at 37° C.): ~20 fold
- increase of uptake of 11-mer RNA on co-incubation (Huh7 cells [9]; FIG. 13 experiment, 60 min at 37° C.): 22 fold
- apoptosis (Hoechst staining of nuclei) (Huh7 cells [10]): did not induce apoptosis; also recorded: does not induce apoptosis
